Source: patent publication US20130183268A1, “DRUG COMBINATIONS WITH FLUORO-SUBSTITUTED OMEGA-CARBOXYARYL DIPHENYL UREA FOR THE TREATMENT AND PREVENTION OF DISEASES AND CONDITIONS” (BAYER HEALTHCARE LLC, priority 2010, published 2013)

Legend:
[1] = Metabolite profile, incubation of [14C]regorafenib with liver microsomes (rat); assay type: in vitro ADME, Wistar rat; settings: [14C]regorafenib 20 μM, liver microsomes 0.5 mg/mL, 60 min
Method: (§1) N-oxide (M-2), hydroxymethyl (M-3), de-methylated (M-4) and N-oxide-demethylated (M-5) metabolites of the fluoro-substituted diaryl urea of Formula (I) are shown below. They were identified as metabolites of regorafenib in vitro upon incubation with liver enzymes of various mammalian species (man, dog, rat, mouse). Studies reveal that its metabolites show high protein binding in man and animal species (data not shown). [table]

[2] = Metabolite profile, incubation of [14C]regorafenib with liver microsomes (mouse); assay type: in vitro ADME, NMRI mouse; settings: [14C]regorafenib 20 μM, liver microsomes 0.5 mg/mL, 60 min
Method: as §1

[3] = Metabolite profile, incubation of [14C]regorafenib with liver microsomes (man); assay type: in vitro ADME; settings: [14C]regorafenib 20 μM, liver microsomes 0.5 mg/mL, 60 min
Method: as §1

[4] = Metabolite profile, incubation of [14C]regorafenib with liver microsomes (dog); assay type: in vitro ADME, Beagle dog; settings: [14C]regorafenib 20 μM, liver microsomes 0.5 mg/mL, 60 min
[5] = Pharmacokinetics in patients after 160 mg regorafenib co-precipitate tablet; settings: for AUC Day 21 / Cmax Day 21: analyte in plasma, 160 mg regorafenib co-precipitate tablet daily, day 21, n = 9, geometric mean; for systemic exposure: colon cancer patients, 160 mg coprecipitate tablets daily for 21 days; for fold increase in Cmax / fold increase in the AUC: continuous qd dosing for 19 days, in comparison to the first dose; for Fold change AUC / Fold change Cmax: day 21 versus day 1
[6] = analyte in plasma after 160 mg regorafenib co-precipitate tablet, day 1, n = 9, geometric mean

SMILES	% of radioactivity, Wistar rat [1] [%]	% of radioactivity, NMRI mouse [2] [%]	% of radioactivity, Man [3] [%]	% of radioactivity, Beagle dog [4] [%]	Cmax Day 1 [5, 6] [ng/mL]	AUC Day 21 [5] [ng·h/mL]	Cmax Day 21 [5] [ng/mL]	systemic exposure [5]	fold increase in Cmax [5] [fold]	fold increase in the AUC [5] [fold]	Fold change AUC [5]	Fold change Cmax [5]	AUC Day 1 [5, 6] [ng·h/mL]
O=C(Nc1ccc(Cl)c(C(F)(F)F)c1)Nc1ccc(Oc2ccnc(C(=O)NCO)c2)cc1F [Example M-3]	19	12	7.7	25.6									
NC(=O)c1cc(Oc2ccc(NC(=O)Nc3ccc(Cl)c(C(F)(F)F)c3)c(F)c2)cc[n+]1[O-] [Example M-5, 4{4-[3-(4-chloro-3-trifluoromethylphenyl)-ureido]-3-fluorophenoxy}-1-hydroxy-pyridine-2-carboxylic acid amide]					75.5	51800	3140	very similar to regorafenib	42	25	25.1	41.6	
CNC(=O)c1cc(Oc2ccc(NC(=O)Nc3ccc(Cl)c(C(F)(F)F)c3)c(F)c2)cc[n+]1[O-] [Example M-2, 4{4-[3-(4-chloro-3-trifluoromethylphenyl)-ureido]-3-fluorophenoxy}-1-hydroxy-pyridine-2-carboxylic acid methylamide]	5.4	26.9	29.7	3.6	764	55400	3570	very similar to regorafenib	5	2	2.3	4.7	24000
